Test: Qualitative solubility/crystallisation tests on 15 mg scale
Format: physicochemical
Description: The E/Z ratio pre and post dry-flash remain in the range of 30/70 to 40/60. Furthermore, such an approach should be considered on the basis of the scale at which the operation has to be carried out. On a 20 L scale, this operation would not be a time saving approach.

SMILES: CO/N=C1/C[C@@H](CO)N(C(=O)c2ccc(-c3ccccc3C)cc2)C1 [(3Z,5S), (3Z,5S)-5-(hydroxymethyl)-1-[(2′-methyl-1,1′-biphenyl-4-yl)carbonyl]pyrrolidin-3-one-O-methyloxime]
- Qualitative solubility, Dissolves in (DIPE, hot): 40 vol hot
- Qualitative solubility, Dissolves in (IPA, hot): 4 vol hot
- Qualitative solubility, Dissolves in (MIBK, hot): 4 vol hot
- Qualitative solubility, Dissolves in (THF, cold): 4 vol cold
- Qualitative solubility, Dissolves in / Comment (heptanes): insoluble in 20 vol
- Qualitative solubility, Dissolves in (tBuOH, hot): 6 vol hot
- Qualitative solubility, Dissolves in (toluene, cold): 2 vol cold

Source: patent publication US20230226021A1, “ORAL FORMULATIONS OF PYRROLIDINE DERIVATIVES” (ObsEva S.A., priority 2013, published 2023)
